“Also recorded” adds a separate entry of the source.
What was measured:
[1] = biological target: chymotrypsin-like activity of purified 20S proteasome (UniProt Q9P992); format: biochemical
Protocol: FIG. 8. […] A). […] Initially, 0.5 μg of purified 20S proteasome is incubated with 20 μM of a fluorogenic peptide substrate, Suc-Leu-Leu-Val-Tyr-AMC, for 30 min at 37° C. in 100 μl of assay buffer (20 mM Tris-HCl, pH 8.0) with various concentrations of tannic acid. After incubation, the reaction mixture is diluted to 200 μl with the assay buffer, followed by measurement of the hydrolyzed 7-amido-4-methyl-coumarin (AMC) groups using a fluorometer with an excitation filter of 380 nm and an emission filter of 460 nm. B). […] Tannic acid (0.3 μg/ml) and Glucose (180 μg/ml) are used in the proteasome activity assay as described above. C). […] Purified calpain I (3 μg) protein is incubated with 40 μM of a fluorogenic peptide substrate, Suc-Leu-Tyr-AMC, for 30 min at 37° C. in 100 μl of assay buffer (50 mM Tris-HCl, pH 7.5, containing 50 mM NaCl, 1 mM EDTA, 1 mM EGTA, 5 mM β-Mercaptoethanol, 5 mM CaCl2, and 0.1% CHAPS) in the absence (control) or presence of 5 μg/ml of tannic acid or 0.18 μg/ml of calpeptin (calpain inhibitor).
Inhibition of the proteasome activity in vitro by tea polyphenols—To measure the 20S proteasome chymotrypsin-like activity, 0.5 μg of a purified 20S proteasome (Calbiochem) is incubated with 20 μM of a fluorogenic peptide substrate, Suc-Leu-Leu-Val-Tyr-AMC (Calbiochem), for 30 min at 37° C. in 100 μl of assay buffer (20 mM Tris-HCl, pH 8.0), with or without tea polyphenols (purity >95%; Sigma) or tea extract. After incubation, the reaction mixture is diluted to 200 μl with the assay buffer, followed by measurement of the hydrolyzed 7-amido-4-methyl-coumarin (AMC) groups using a VersaFluor™ Fluorometer with an excitation filter of 380 nm and an emission filter of 460 nm (Bio-Rad).

[2] = biological target: T1, proteasomal chymotrypsin-like activity in Jurkat T cell extract (Homo sapiens, UniProt P28074); test: Proteasome chymotrypsin-like activity in Jurkat T cell free extract; format: biochemical
T1 construct: endogenous in cells; host or cells: Jurkat T cells (whole cell extract or intact cells)
Protocol: FIG. 9. Inhibition of the proteasome activity by tannic acid using a cell free extract. A). The whole cell extract (6.0 μg) from Jurkat T cells is incubated for 90 min at 37° C. with 20 μM of a fluorogenic peptide substrate, Suc-Leu-Leu-Val-Tyr-AMC for the chymotrypsin-like activity, Z-Leu-Leu-Glu-AMC for peptidyl-glutamyl peptide-hydrolyzing (PGPH) activity, and Z-Gly-Gly-Arg-AMC for the trypsin-like activity, in 100 μl of the assay buffer with (filled bars) or without (empty bars) 1 μg/ml of tannic acid. The hydrolyzed AMCs are quantified as described in FIG. 2. B). […] Experiment is performed as described in FIG. 9A.
(§1) Inhibition of the proteasome activity with cell free extracts by tea polyphenols—The whole cell extract (3.5 μg) from Jurkat T cells is incubated for 90 min at 37° C. with 20 μM of a fluorogenic peptide substrate, Suc-Leu-Leu-Val-Tyr-AMC (for the chymotrypsin-like activity), Z-Leu-Leu-Glu-AMC [peptidyl-glutamyl peptide-hydrolyzing (PGPH) activity; Calbiochem], and Z-Gly-Gly-Arg-AMC (for the trypsin-like activity; Bachem), in 100 μl of the assay buffer with or without 10 μM EGCG or EGC. The hydrolyzed AMCs are quantified as described above.

[3] = biological target: T2, proteasome chymotrypsin-like activity in living Jurkat cells (Homo sapiens, UniProt P28074); test: Proteasome chymotrypsin-like activity in living Jurkat T cells; format: cell-based
T2 construct: endogenous in cells; host or cells: Jurkat T cells (whole cell extract or intact cells)
Protocol: FIG. 10. Inhibition of the chymotrypsin-like activity by tannic acid in intact Jurkat T cells. Intact Jurkat T cells (1×10^5 cells/ml/well) are cultured in 24-well plates. These cells are first incubated for 12 h with various concentrations of tannic acid as indicated, followed by an additional 2 h-incubation with a fluorogenic peptide substrate, Suc-Leu-Leu-Val-Tyr-AMC for the chymotrypsin-like activity. Then, cell medium (200 μl per sample) is collected and used for measurement of free AMCs.
Inhibition of the proteasome activity in living cells by tea polyphenols—To measure inhibition of the chymotrypsin-like activity in living tumor cells, Jurkat T (1×10^5 cells/ml/well), MCF7 or PC-3 cells (1×10^4 cells/ml/well) are cultured in 24-well plates. These cells are first incubated for 12 h with various concentrations of EGCG, EGC, β-lactone or LLnL, followed by an additional 2 h-incubation with fluorogenic peptide substrates, Suc-Leu-Leu-Val-Tyr-AMC for the chymotrypsin-like activity and Z-Gly-Gly-Arg-AMC for the trypsin-like activity. After that, cell medium (200 μl per sample) is collected and used for measurement of free AMCs.

[4] = biological target: T3, proteasomal PGPH activity in Jurkat T cell extract (Homo sapiens, UniProt P28072); test: Proteasome PGPH activity in Jurkat T cell free extract; format: biochemical; details: EGCG 10 μM
T3 construct: endogenous in cells; host or cells: Jurkat T cell whole cell extract
Protocol: as §1

Jurkat T cells = test: Cell cycle analysis by flow cytometry, Jurkat T cells; format: cell-based, human
Protocol: FIG. 6. Cell cycle analysis. Asynchronous Jurkat, LNCaP, WI-38, and VA-13 cells are treated with 10 μM EGCG and harvested at the time points indicated. Cells are prepared and analyzed by flow cytometry as described in the The Materials and Methods section of Example 1. Growth arrest is determined by the increase in the percentage of G1 population.
FIG. 12. […] Jurkat T cells are treated with either 50 μg/ml of tannic acid or buffer (−) for up to 48 h. The harvested cells are fixed, resuspended in 1 ml of PBS containing 50 μg/ml of propidium iodide (PI), 100 U/ml of RNase A, and 1 mg/ml of glucose, and analyzed by flow cytometry. Percentages of cells containing G1 S, G2 and M DNA content are indicated. Percentages of the apoptotic cell population containing sub-G1 DNA content is also indicated. Note: tannic acid treatment results in ˜23% increase in G1 and ˜14% increase in apoptotic cell populations.
Cell cycle analysis—Cell cycle analysis based on DNA content is performed as follows. Cells are harvested, counted and washed twice with PBS. Cells (5×10^6 ) are then suspended in 0.5 ml PBS, pipetted and fixed in 5 ml of 70% ethanol for at least 2 h at −20° C. Cells are centrifuged, resuspended in 1 ml of propidium iodide staining solution (50 μg propidium iodide, 100 units RNase A and 1 mg glucose per ml PBS) and incubated at room temperature for 30 min. The cells are then analyzed with FACScan (Becton Dickinson Immunocytometry, CA.), ModFit LT and WinMDI V.2.8 cell cycle analysis software (Verity Software, Topsham, Me.). The cell cycle distribution is shown as the percentage of cells containing G1, S, G2, and M DNA judged by propidium iodide staining.

[5] = tannic acid 50 μg/ml, up to 48 h

Chain of chymotrypsin-like activity of purified 20S proteasome (Q9P992 whole entry): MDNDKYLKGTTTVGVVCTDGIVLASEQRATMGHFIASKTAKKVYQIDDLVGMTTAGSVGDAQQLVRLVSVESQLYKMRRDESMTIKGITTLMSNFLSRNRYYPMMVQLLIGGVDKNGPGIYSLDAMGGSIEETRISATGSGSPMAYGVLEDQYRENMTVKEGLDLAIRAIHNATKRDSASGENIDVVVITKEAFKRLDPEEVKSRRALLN

| Compound | fold less potent than EGCG ([1]; ratio of IC50 to EGCG) | inhibition of proteasomal chymotrypsin-like activity in Jurkat T cell extract (in words) [2] | inhibition of chymotrypsin-like activity in living/intact Jurkat cells (in words) [3] | IC50 ([1]; read-out: IC50 towards the chymotrypsin-like activity of purified 20S proteasome) | inhibition of proteasomal chymotrypsin-like activity ([2]; 10 μM, Jurkat T cell extract) | inhibition of proteasomal PGPH activity (in words) [4] | inhibition of chymotrypsin-like activity ([3]; 10 μM, living Jurkat cells) | IC50 ([3]; 12 h preincubation) | increase in G1 population (Jurkat T cells; 10 μM, 24 h) | inhibition of purified 20S proteasome chymotrypsin-like activity (in words) [1] | inhibition of chymotrypsin-like activity of the proteasome (in words) ([1]; tannic acid 0.3 μg/ml, glucose 180 μg/ml) | G1 arrest and apoptosis (in words) (Jurkat T cells; tannic acid) | increase in G1 cell population (Jurkat T cells; [5]) | increase in apoptotic cell population (sub-G1) (Jurkat T cells; [5]) |
| --- | --- | --- | --- | --- | --- | --- | --- | --- | --- | --- | --- | --- | --- | --- |
| Oc1cc(O)c2c(c1)O[C@H](c1cc(O)c(O)c(O)c1)[C@H](O)C2 [EGC, (−)-epigallocatechin] | 14,000 fold | little effect | much less effect | – | – | – | – | – | – | – | – | – | – | – |
| O=C(O[C@@H]1Cc2c(O)cc(O)cc2O[C@@H]1c1cc(O)c(O)c(O)c1)c1cc(O)c(O)c(O)c1 [EGCG, (−)-epigallocatechin-3-gallate] | – | most potent proteasome inhibitor among all the tested polyphenols | inhibitable | 0.086 µM | ~70% | potently inhibits | 24% | 18 µM | 10% | – | – | – | – | – |
| O=C(OC[C@H]1O[C@@H](OC(=O)c2cc(O)c(O)c(OC(=O)c3cc(O)c(O)c(O)c3)c2)[C@H](OC(=O)c2cc(O)c(O)c(OC(=O)c3cc(O)c(O)c(O)c3)c2)[C@@H](OC(=O)c2cc(O)c(O)c(OC(=O)c3cc(O)c(O)c(O)c3)c2)[C@@H]1OC(=O)c1cc(O)c(O)c(OC(=O)c2cc(O)c(O)c(O)c2)c1)c1cc(O)c(O)c(OC(=O)c2cc(O)c(O)c(O)c2)c1 [tannic acid] | – | Dose-dependent inhibition; also recorded: inhibited by tannic acid in a dose-dependent manner | inhibition | – | – | – | – | – | – | concentration-dependent; also recorded: inhibited | inhibited | induces G1 arrest and apoptosis | ~23% | ~14% |

Reference: patent US6713506B2, “Tea polyphenol esters and analogs thereof for cancer prevention and treatment” (University of South Florida, priority 2000, dated 2004)
